Laboratory results as given in USRE36832E, “N-heteroaryl-N'-phenylurea derivatives, their production and use” (Nihon Nohyaku Co., LTD, priority 1993, dated 2000).

Molecular target: T1, acyl-CoA:cholesterol O-acyltransferase (ACAT) (Oryctolagus cuniculus, UniProt G1SFD9)
T1 construct: The intestinal mucosa of a white rabbit was homogenized and microsomal fraction was obtained by stepwise centrifugation; from tissue; host or cells: intestinal mucosa of white rabbit, microsomal fraction
T1 sequence (G1SFD9 1-524): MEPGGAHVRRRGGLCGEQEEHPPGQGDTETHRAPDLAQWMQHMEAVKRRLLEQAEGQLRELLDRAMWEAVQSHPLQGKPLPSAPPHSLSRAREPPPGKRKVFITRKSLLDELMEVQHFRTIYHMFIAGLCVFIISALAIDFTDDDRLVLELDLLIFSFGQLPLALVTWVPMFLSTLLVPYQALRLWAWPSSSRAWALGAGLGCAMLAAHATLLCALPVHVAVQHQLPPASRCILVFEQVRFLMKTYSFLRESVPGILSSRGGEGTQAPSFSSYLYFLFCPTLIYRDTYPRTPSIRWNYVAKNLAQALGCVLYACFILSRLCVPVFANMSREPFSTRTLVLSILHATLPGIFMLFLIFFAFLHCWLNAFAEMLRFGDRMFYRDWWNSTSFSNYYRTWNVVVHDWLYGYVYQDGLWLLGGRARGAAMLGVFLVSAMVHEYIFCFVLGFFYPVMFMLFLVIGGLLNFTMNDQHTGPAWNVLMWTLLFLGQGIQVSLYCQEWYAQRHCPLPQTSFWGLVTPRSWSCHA
Assay: Inhibitory activity on acyl-CoA:cholesterol O-acyltransferase (ACAT), intestinal mucosa microsomal fraction, [1-14C]oleyl-CoA incorporation into cholesterol esters
Type: biochemical, white rabbit
Conditions: 0.01 μM; read-out: Inhibition rate %
Description: Inhibitory activity on acyl-CoA:cholesterol Oacyltransferase (ACAT)
The enzyme used in the test was prepared according to the method of Heider et al. [J. Lipid, Res. 24, 1127 (1983)]. The intestinal mucosa of a white rabbit was homogenized and microsomal fraction was obtained by stepwise centrifugation. The microsomal fraction was suspended in 0,154M phosphate buffer (pH 0 7.4) and stored at -80° C. until use.
ACAT activity was determined by a modification of the method of Helgerud et al. [J. Lipid Res. 22, 271 (1981)] by measuring radioactivity incorporated into cholesterol esters from [1-14C]oleyl-CoA, as an indication. As to the ACAT-inhibiting activity of each compound to be tested, the inhibition rate was calculated by the following equation.

Structure (SMILES)	inhibition at 0.01 µM
CCc1cccc(CC)c1NC(=O)Nc1oc2cc(C)c(C)cc2c1-c1ccccc1Cl [Compound 37, N-[3-(2-Chlorophenyl)-5,6-dimethylbenzofuran-2-yl]-N'-(2,6-diethylphenyl)urea]	74.7%
Cc1cc2sc(NC(=O)Nc3c(C(C)C)cccc3C(C)C)c(-c3ccccc3Cl)c2cc1C [Compound 81, N-(3-(2-Chlorophenyl)-5,6-dimethyl-1-benzothiophen-2-yl]-N'-(2,6-diisopropylphenyl)urea]	41.4%
Cc1cc2sc(NC(=O)Nc3c(C)cccc3C(C)C)c(-c3ccccc3Cl)c2cc1C [Compound 82, N-[3-(2-Chlorophenyl)-5,6-dimethyl-1-benzothiophen-2-yl]-N'-(2-isopropyl-6-methylphenyl)urea]	67%
Cc1cc2sc(NC(=O)Nc3c(C)cccc3N(C)C)c(-c3ccccc3Cl)c2cc1C [Compound 83, N-[3-(2-Chlorophenyl)-5,6-dimethyl-1-benzothiophen-2-yl]-N'-(2-dimethylamino-6-methylphenyl)urea]	81.3%
Cc1cc2sc(NC(=O)Nc3ccc(F)cc3F)c(-c3ccccc3Cl)c2cc1C [Compound 84, N-[3-(2-Chlorophenyl)-5,6-dimethyl-1-benzothiophen-2-yl]-N'-(2,4-difluorophenyl)urea]	78.6%
O=C(Nc1sc2cc3c(cc2c1-c1ccccc1Cl)CCC3)Nc1c(F)cc(F)cc1F [Compound 94, N-[3-(2-Chlorophenyl)-6,7-dihydro-5H-cyclopenta[f][1]benzothiophen-2-yl]-N'-(2,4,6-trifluorophenyl)urea]	76.7%
O=C(Nc1ccc(F)cc1F)Nc1sc2cc3c(cc2c1-c1ccccc1Cl)CCCC3 [Compound 99, N-[3-(2-Chlorophenyl)-5,6,7,8-tetrahydronaphtho[2,3-b]thiophen-2-yl]-N'-(2,4-difluorophenyl)urea]	90.1%
CC(C)c1cccc(C(C)C)c1NC(=O)Nc1sc2ccc([N+](=O)[O-])cc2c1-c1ccc(Cl)cc1Cl [Compound 100, N-[3-(2,4-Dichlorophenyl)-5-nitro-1-benzothiophen-2-yl]-N'-(2,6-diisopropylphenyl)urea]	18.4%
CCc1cccc(CC)c1NC(=O)Nc1sc2cc(OC)c(OC)cc2c1-c1ccccc1Cl [Compound 102, N-[3-(2-Chlorophenyl)-5,6-dimethoxy-1-benzothiophen-2-yl]-N'-(2,6-diethylphenyl)urea]	43.3%
O=C(Nc1ccc(F)cc1F)Nc1sc2cc3c(cc2c1-c1ccc(Cl)cc1Cl)CCC3 [Compound 107, N-[3-(2,4-Dichlorophenyl)-6,7-dihydro-5H-cyclopenta[f][1]benzothiophen-2-yl]-N'-(2,4-difluorophenyl)urea]	36.2%
CCc1cccc(CC)c1NC(=O)Nc1sc2cc3c(cc2c1-c1ccccc1C)CCC3 [Compound 109, N-(2,6-Diethylphenyl)-N'-[3-(2-methylphenyl)-6,7-dihydro-5H-cyclopenta[f][1]benzothiophen-2-yl]urea]	80.1%
Cc1ccccc1-c1c(NC(=O)Nc2c(C)cccc2C(C)C)sc2cc3c(cc12)CCC3 [Compound 111, N-(2-Isopropyl-6-methylphenyl)-N'-[3-(2methylphenyl)-6,7-dihydro-5H-cyclopenta[f][1]benzothiophen-2-yl]urea]	69.2%
CCc1cccc(CC)c1NC(=O)Nc1sc2cc3c(cc2c1-c1ccccc1C(F)(F)F)CCC3 [Compound 113, N-(2,6-Diethylphenyl)-N'-[3-(2-trifluoromethylphenyl)-6,7-dihydro-5H-cyclopenta[f][1]-benzothiophen-2-yl]urea]	43.5%
Cc1ccccc1-c1c(NC(=O)Nc2ccc(F)cc2F)sc2cc3c(cc12)CCCC3 [Compound 119, N-(2,4-Difluorophenyl)-N'-[3-(2-methylphenyl)5,6,7,8-tetrahydronaphtho [2,3-b]thiophen-2-yl]urea]	79.5%

Next, values leading:

inhibition at 0.01 µM	Structure (SMILES)
60.4%	Cc1cccc(C)c1NC(=O)Nc1sc2cc3c(cc2c1-c1ccccc1Cl)CCC3 [Compound 87, N-[3-(2-Chlorophenyl)-6,7-dihydro-5H-cyclopenta[f][1]benzothiophen-2-yl]-N'-(2,6-dimethylphenyl)urea]
85.8%	CCc1cccc(CC)c1NC(=O)Nc1sc2cc3c(cc2c1-c1ccccc1Cl)CCC3 [Compound 88, N-[3-(2-Chlorophenyl)-6,7-dihydro-5H-cyclopenta[f][1]benzothiophen-2-yl]-N'-(2,6-diethylphenyl)urea]
44.4%	CC(C)c1cccc(C(C)C)c1NC(=O)Nc1sc2cc3c(cc2c1-c1ccccc1Cl)CCC3 [Compound 89, N-[3-(2-Chlorophenyl)-6,7-dihydro-5H-cyclopenta[f][1]benzothiophen-2-yl]-N'-(2,6-diisopropylphenyl)urea]
75.4%	Cc1cccc(C(C)C)c1NC(=O)Nc1sc2cc3c(cc2c1-c1ccccc1Cl)CCC3 [Compound 90, N-[3-(2-Chlorophenyl)-6,7-dihydro-5H-cyclopenta[f][1]benzothiophen-2-yl]-N'-(2-isopropyl-6-methylphenyl)urea]
65%	Cc1cccc(N(C)C)c1NC(=O)Nc1sc2cc3c(cc2c1-c1ccccc1Cl)CCC3 [Compound 91]
81.7%	O=C(Nc1ccc(F)cc1F)Nc1sc2cc3c(cc2c1-c1ccccc1Cl)CCC3 [Compound 92, N-(3-(2-Chlorophenyl)-6,7-dihydro-5H-cyclopenta[f][1]benzothiophen-2-yl]-N'-(2,4-difluorophenyl)urea]
69.7%	O=C(Nc1sc2cc3c(cc2c1-c1ccccc1Cl)CCC3)Nc1c(F)cccc1F [Compound 93, N-[3-(2-Chlorophenyl)-6,7-dihydro-5H-cyclopenta[f][1]benzothiophen-2-yl]-N'-(2,6-difluorophenyl)urea]
66.4%	O=C(Nc1sc2cc3c(cc2c1-c1ccccc1Cl)CCC3)Nc1c(Cl)cccc1Cl [Compound 95, N-[3-(2-Chlorophenyl)-6,7-dihydro-5H-cyclopenta[f][1]benzothiophen-2-yl]-N'-(2,6-dichlorophenyl)urea]
80.7%	CCc1cccc(CC)c1NC(=O)Nc1sc2cc3c(cc2c1-c1ccccc1Cl)CCCC3 [Compound 96, N-[3-(2-Chlorophenyl)-5,6,7,8-tetrahydronaphthono[2,3-b]thiophen-2-yl]-N'-(2,6-diethylphenyl)urea]
66%	Cc1cccc(C(C)C)c1NC(=O)Nc1sc2cc3c(cc2c1-c1ccccc1Cl)CCCC3 [Compound 98, N-[3-(2-Chlorophenyl)-5,6,7,8-tetrahydronaphtho[2,3-b]thiophen-2-yl]-N'-(2-isopropyl-6-methylphenyl)urea]

Same assay, conditions: 1 μM; read-out: Inhibition rate %

inhibition at 1 µM	Structure (SMILES)
99.5%	CCc1cccc(CC)c1NC(=O)Nc1oc2cc(C)c(C)cc2c1-c1ccccc1Cl [Compound 37, N-[3-(2-Chlorophenyl)-5,6-dimethylbenzofuran-2-yl]-N'-(2,6-diethylphenyl)urea]
60.4%	Cc1ccc(S(=O)(=O)n2c(NC(=O)Nc3ccc(F)cc3F)c(-c3ccccc3)c3ccccc32)cc1 [Compound 120, N-(2,4-Difluorophenyl)-N'-[3-phenyl-1-(p-toluenesulfonyl)-3-phenylindole-2-yl]urea]
85.8%	Cc1ccc(S(=O)(=O)n2c(NC(=O)Nc3c(C)cccc3C(C)C)c(-c3ccccc3Cl)c3cc(C)cc(C)c32)cc1 [Compound 121, N-[3-(2-chlorophenyl)-5,7-dimethyl-1-(p-toluenesulfonyl)indole-2-yl]-N'-(2-isopropyl-6-methylphenyl)urea]
75.4%	Cc1ccc(S(=O)(=O)n2c(NC(=O)Nc3ccc(F)cc3F)c(-c3ccccc3Cl)c3cc(C)cc(C)c32)cc1 [Compound 122, N-[3-(2-Chlorophenyl)-5,7-dimethyl-1-(p-toluenesulfonyl)indole-2-yl]-N'-(2,4-difluorophenyl)urea]
81.7%	Cc1cc(C)c2c(c1)c(-c1ccccc1Cl)c(NC(=O)Nc1ccc(F)cc1F)n2C [Compound 124, N-[3-(2-Chlorophenyl)-5,7-dimethyl-1-methylindole-2-yl]-N'-(2,4-difluorophenyl)urea]

Tested on: serum cholesterol
Assay: Serum cholesterol lowering activity in hamsters fed on a high-cholesterol diet
Type: in vivo, Male Syrian hamsters
Conditions: 30 mg per kg of body weight per day for 4 days, 24 hours after the last administration
Description: Serum cholesterol lowering activity in hamsters fed on a high-cholesterol diet
Male Syrian hamsters of 10-week-old were divided into three groups. The first group (normal group) was fed an ordinary diet for 4 days. The second group (control group) was fed a high cholesterol diet (containing 0.5% cholesterol and 8.0% coconut oil for 4 days. The third group (treated group) was fed a high cholesterol diet and was treated with a compound for 4 days. Simultaneously with the beginning of the above feeding, the compound suspended in a 0.5% carboxymethyl cellulose solution was administered to the treated group, in a dose of 30 mg (in terms of the compound) per kg of body weight per day for 4 days. A 0.5% carboxymethyl cellulose solution was also administered to the normal group and the control group in the same manner as above. After 24 hours of the last administration, blood was collected and the cholesterol concentration in serum was measured by an enzymatic method. The reduction rate of the total serum cholesterol concentration was calculated from values obtained for the three groups by the following equation. [formula] wherein A: the serum cholesterol concentration of the control group.
B: the serum cholesterol concentration of the compound treated group.
C: the serum cholesterol concentration of the normal group.

Structure (SMILES)	Reduction rate (%) of the total serum cholesterol concentration
CCc1cccc(CC)c1NC(=O)Nc1oc2cc(C)c(C)cc2c1-c1ccccc1Cl [Compound 37, N-[3-(2-Chlorophenyl)-5,6-dimethylbenzofuran-2-yl]-N'-(2,6-diethylphenyl)urea]	59.3%
CCc1cccc(CC)c1NC(=O)Nc1sc2cc3c(cc2c1-c1ccccc1C)CCC3 [Compound 109, N-(2,6-Diethylphenyl)-N'-[3-(2-methylphenyl)-6,7-dihydro-5H-cyclopenta[f][1]benzothiophen-2-yl]urea]	71.5%
